Data reported in ChEMBL document CHEMBL2094269, “WEHI/Eskitis Trypanosoma b. brucei screening data”.

These compounds were tested on Trypanosoma brucei brucei (assay: microbe, parasite or virus in culture). Conditions: Trypanosoma brucei, STIB 795.
Assay type: functional, organism-based, STIB 795
Description: DNDI: Inhibition of Human African Trypanosomiasis (HAT), STIB 795, in vitro

SMILES | IC50 [µM]
CCN1CCN(c2cc(C)c3cc(NC(=O)c4ccccc4F)ccc3n2)CC1 | > 10.4
CCOc1cc2c(cc1OCC)C(c1ccccc1)N(c1ccccc1)C(=O)C2 (stereo unspecified) | > 10.4
CCOC(=O)C1CCCN(C2=NC(=O)/C(=C/c3ccc(O)c(OC)c3)S2)C1 (stereo unspecified) | > 10.4
COc1cccc(C(=O)Nc2ccc3nc(N4CCOCC4)cc(C)c3c2)c1 | > 10.4
CN(C)S(=O)(=O)c1ccc(C(=O)Nc2nnc(-c3cccs3)o2)cc1 | > 10.4
CCCCCn1c(C(Cc2ccccc2)NC(=O)COC)nc2ccccc21 (stereo unspecified) | > 10.4
COc1ccccc1CCNCc1ccc(OC)c(OCc2ccccc2)c1 | > 10.4
CCN1CCN(c2cc(C)c3cc(NC(=O)c4cccs4)ccc3n2)CC1 | > 10.4
COC(=O)c1cc(NC(=O)Nc2ccc3snnc3c2)cc(C(=O)OC)c1 | > 10.4
Fc1ccc(C(OCCN2CCCC2)c2ccc(Br)cc2)cc1 (stereo unspecified) | > 10.4
CN1CCN(C2Cc3ccccc3Sc3cc(C(F)(F)F)ccc32)CC1 (stereo unspecified) | > 10.4
CCn1cc(C(=O)N(C)c2ccccc2F)c2cc(OC)c(OC)cc2c1=O | > 10.4
O=C(O)CSc1cc(NS(=O)(=O)c2ccccc2)c2ccccc2c1O | > 10.4
CC[n+]1c(/C=C2\Sc3ccccc3N2CCC(=O)O)sc2ccccc21 | > 10.4
CSc1ccc(/C=C2\CN(C)C/C(=C\c3ccc(SC)cc3)C2=O)cc1 | > 10.4
OC(COCc1ccc(Cl)cc1)CN1CCC(Cc2ccccc2)CC1 (stereo unspecified) | > 10.4
COc1ccc(C(CC(=O)c2ccco2)SCc2ccco2)cc1OC (stereo unspecified) | > 10.4
Cc1ccc(C(CNC(=O)COc2ccc(Cl)cc2)N2CCCC2)cc1 (stereo unspecified) | > 10.4
O=C(Nc1nc(-c2ccncc2)cs1)c1ccc(Oc2ccccc2)cc1 | > 10.4
CSc1ccc(C(Nc2ccccn2)c2ccc3cccnc3c2O)cc1 (stereo unspecified) | > 10.4
CC1CC(OCC(O)CN2CCC(Cc3ccccc3)CC2)CC(C)(C)C1 (stereo unspecified) | > 10.4
O=C(/C=C/c1ccccc1)Nc1c(-c2ccccc2)nc2ccc(Cl)cn12 | > 10.4
OC(c1ccc(Cl)s1)(c1ccc(Cl)s1)C1CN2CCC1CC2 (stereo unspecified) | > 10.4

SMILES | IC50 [µM]
Cc1ccc(-c2csc3ncnc(N/N=C/c4cc(C)ccc4O)c23)cc1 | > 10.4
C/C(=C\c1nsc(Nc2ccc(F)c(Cl)c2)n1)Nc1ccc(C)cc1 | > 10.4
O=c1oc2c(cc(NS(=O)(=O)c3ccc(F)cc3)c3ccccc32)s1 | > 10.4
OC(C#CCN1CCOCC1)(c1ccc(Cl)cc1)c1cccc(Cl)c1 (stereo unspecified) | > 10.4
OCCNCc1c(OCc2ccc(Cl)cc2Cl)ccc2ccccc12 | > 10.4
COC(=O)c1cc(-c2ccccc2)nc2c1C(=O)C(=O)C=C2N1CCCCC1 | > 10.4
CC(C)CNC(=O)Nc1cccc(-c2noc(C3(c4ccccc4)CC3)n2)c1 | > 10.4
CN(C)c1ccc(C(Nc2nccs2)c2ccc3cccnc3c2O)cc1 (stereo unspecified) | > 10.4
CCN1c2ccccc2NC2=C(C(=O)CC(C)(C)C2)C1c1ccc(OC)cc1 (stereo unspecified) | > 10.4
OC(CNCCc1ccccc1)CN1c2ccccc2Sc2ccccc21 (stereo unspecified) | > 10.4
O=C(N/N=C\c1ccc(-c2cccc(Cl)c2Cl)o1)c1ccc(F)cc1 | > 10.4
N#Cc1cc(C#N)c(SCC(=O)Nc2cccc(C(F)(F)F)c2)nc1N | > 10.4
C=CCN1C(=O)c2[nH]nc(-c3c(C)cc(C)cc3O)c2C1c1ccc(F)cc1 (stereo unspecified) | > 10.4
Cc1ccc(Nc2cc(C)nc(N3CCN(C(=O)c4ccco4)CC3)n2)cc1 | > 10.4
COc1cccc(/C=C2/CN(C(C)C)C/C(=C\c3cccc(OC)c3)C2=O)c1 | > 10.4
CCOc1cccc(/C=N/NC(=O)c2cc(-c3ccc(CC)cc3)n[nH]2)c1O | > 10.4
OCCN1CCN(Cc2ccccc2Sc2ccc3ccccc3c2)CC1 | > 10.4
CC1CCN(Cc2cc(CSc3ccccc3)c3cccnc3c2O)CC1 | > 10.4
O=C(Nc1ccccc1C(=O)N/N=C/c1ccccn1)c1ccc(Cl)cc1 | > 10.4
Cc1c(-c2cc(Cl)cc(-c3ccc(F)cc3)c2)ccc2nc(N)nc(N)c12 | > 10.4
COc1ccc(C(=O)O/N=C(\N)c2ccc(Br)cc2)c(OC)c1 | > 10.4
Clc1ccc(Nc2nc3nonc3nc2NC2CCCCC2)cc1Cl | > 10.4
Cc1cc(C)c(C(=O)CC(SCC(=O)OC(C)C)C(F)(F)F)c(=O)[nH]1 (stereo unspecified) | > 10.4

SMILES | IC50 [µM]
CCC(=O)Nc1nc2ccc(NS(=O)(=O)c3ccccc3F)cc2s1 | > 10.4
CCCCOC(=O)c1ccc(NC(=O)c2ccc(C3CCCCC3)cc2)cc1 | > 10.4
Cc1ccccc1-c1cc(N2CCN(C(=O)NC3CCCCC3)CC2)ncn1 | > 10.4
CN(C)c1ccc(/C=N/Nc2cc(N3CCCC3)nc(N3CCCC3)n2)cc1 | > 10.4
O=C(O)c1ccc(NC(CC(=O)c2ccc(Cl)cc2)c2ccccc2)cc1 (stereo unspecified) | > 10.4
O=C(CC(SCc1ccco1)c1ccc(C(F)(F)F)cc1)c1ccco1 (stereo unspecified) | > 10.4
COC(=O)c1ccc2c(c1)C(C)(C)C(/C=C/c1cccc(OC)c1OC)=[N+]2C | > 10.4
COc1ccc(S(=O)(=O)C(CC(=O)c2ccccc2)c2ccccc2)cc1 (stereo unspecified) | > 10.4
O=C1N=C(Nc2cccc(Cl)c2Cl)S/C1=C\c1ccc(O)c(O)c1 | > 10.4
C/C(=N/NC(=O)c1cc(-c2ccccc2)nc2ccccc12)c1ccccc1O | > 10.4
CCOC(=O)c1c(-c2cccs2)csc1NC(=O)C#Cc1ccccc1 | > 10.4
Cc1cccc(C(=O)N2CCN(c3cc(N4CCOCC4)nc(C)n3)CC2)c1 | > 10.4
CN(C)c1ccc(C(=O)NN=C2C=C(C(C)(C)C)C(=O)C(C(C)(C)C)=C2)cc1 | > 10.4
COc1ccccc1NC(=S)N/N=C/c1cccn1Cc1ccccc1F | > 10.4
CSC1C(c2ccc(F)cc2)=NN(C(=O)Nc2ccc(C#N)cc2)C1(C)C (stereo unspecified) | > 10.4
COc1ccc(CN2CCc3nc(N4CCC(C)CC4)ncc3C2)c(OC)c1 | > 10.4
CN(C)c1ccc(N=c2cc(-c3ccccc3)sc(-c3ccccc3)c2)cc1 | > 10.4
C/C(=N/OC(=O)c1ccc(Cn2nc(C)c(Cl)c2C)cc1)c1ccccn1 | > 10.4
O=C(CCCOc1ccc(Cl)cc1Cl)N/N=C/c1ccc(O)cc1O | > 10.4
COc1ccc(CC(=O)Nc2sc3c(c2C#N)CC(C)(C)NC3(C)C)cc1 | > 10.4
CCOC(=O)c1cnc2c(CC)cccc2c1NC1CC(C)(C)NC(C)(C)C1 | > 10.4
COc1cc(NC(=O)Nc2ccc(-c3noc(C)n3)cc2)cc(OC)c1OC | > 10.4
CCN(CC)S(=O)(=O)c1cccc(N/N=C2\C=CC(=O)c3cccnc32)c1 | > 10.4

SMILES | IC50 [µM]
CCOC(=O)c1ccc(NC(=O)NC23CC4(C)CC(C)(CC(C)(C4)C2)C3)cc1 | > 10.4
Cn1ccnc1-c1c(-c2ccc(Cl)cc2)nc(-c2ccc(Cl)cc2)n1O | > 10.4
CCC(=C\C1=[N+](C)c2ccccc2C1(C)C)/C=C1/N(C)c2ccccc2C1(C)C | > 10.4
CN(C)CCNC(=O)c1ccc2c(c1)NC(=O)/C(=C/c1ccccc1Cl)O2 | > 10.4
CCCN1CCN(c2ncc3c(n2)CCN(Cc2ccccc2Cl)C3)CC1 | > 10.4
CC(=O)N(C)c1ccc(/N=C2/C(=O)Nc3cc(Br)c(C)cc32)cc1 | > 10.4
CC(C)N1C/C(=C\c2cccc(Cl)c2)C(=O)/C(=C/c2cccc(Cl)c2)C1 | > 10.4
O=C(CC1(O)C(=O)Nc2ccc(Br)cc21)c1ccc(Cl)s1 (stereo unspecified) | > 10.4
Cc1ccc(C(CNC(=O)c2ccc(Br)cc2)N2CCCC2)cc1 (stereo unspecified) | > 10.4
CCOC(=O)c1ccc(Nc2ncnc3c2cnn3-c2ccc(C)cc2C)cc1 | > 10.4
CCOC(=O)c1nc(Nc2cc(Cl)c(OC)cc2OC)c2ccccc2n1 | > 10.4
COc1ccc(Nc2nc(N3CCN(C)CC3)nc3c2cnn3C)cc1Cl | > 10.4
O=C(CCn1nnc2ccccc21)N/N=C/c1cc(Br)ccc1O | > 10.4
CC1CCN(C(=S)NC(=O)c2ccccc2I)CC1 | > 10.4
CCn1c2ccccc2c2cc(CNCCc3ccc(OC)c(OC)c3)ccc21 | > 10.4
CSc1ccc(C2N=C(c3ccc(C)cc3)CC(c3ccccc3O)N2)cc1 (stereo unspecified) | > 10.4
Cc1ccc(S(=O)(=O)C(CC(=O)c2ccco2)c2ccc(Cl)cc2)cc1 (stereo unspecified) | > 10.4
CCN(CC)c1cc(C)c2cc(NC(=O)/C=C/c3ccc(OC)cc3)ccc2n1 | > 10.4
CCCCOc1cccc(-c2cc(C(=O)N/N=C(\C)CC)c3ccccc3n2)c1 | > 10.4
CCCC(=O)c1ccc(N2CCN(C(=O)c3c(F)cccc3F)CC2)c(F)c1 | > 10.4
Cc1ccc(N2CC(C(=O)NCc3nnnn3-c3ccccc3)CC2=O)cc1C (stereo unspecified) | > 10.4
C=CCN1C(=O)c2ccccc2Sc2ccc(C(=O)NCc3ccco3)cc21 | > 10.4
Cc1cc(C)n(-c2nc(N/N=C/c3cccs3)nc(Nc3ccccc3)n2)n1 | > 10.4

SMILES | IC50 [µM]
Cc1c(NC(=O)CN2CCN(C(=O)c3ccccc3)CC2)n(C)c2ccccc12 | > 10.4
CC(C)NC(=O)Nc1ccc(-c2noc(-c3ccc(Br)o3)n2)cc1 | > 10.4
CN(CC(=O)Nc1nncs1)S(=O)(=O)c1ccc(Br)cc1 | > 10.4
CCOC(=O)N1CCN(c2ccc(/C=C(\C#N)c3nc4ccccc4[nH]3)o2)CC1 | > 10.4
CCOC(=O)c1c(NC(C)=O)sc2c1CCC(Sc1ccccc1)C2O (stereo unspecified) | > 10.4
Cc1ccsc1/C=C/C(=O)Nc1ccc2nc(N3CCCCC3)cc(C)c2c1 | > 10.4
CCN1CCC(N(Cc2cccs2)C(=O)Nc2ccc(C)c(Cl)c2)CC1 | > 10.4
CCOC(=O)c1cc2c(=O)n3ccccc3nc2n(CCCn2ccnc2)c1=N | > 10.4
O=C(NN=C(/C=C/c1ccccc1)c1ccccc1)c1cc2ccccc2cc1O | > 10.4
COc1ccccc1-n1c(C)cc(/C=C2\C(=N)N3C(C)=CSC3=NC2=O)c1C | > 10.4
O=C(Nc1cccc(Cl)c1)C1CCN(c2ncc(-c3ccccc3)cn2)CC1 | > 10.4
OCCN1CCN(C2Cc3ccccc3Sc3cc(Cl)c(F)cc32)CC1 (stereo unspecified) | > 10.4
C/C(=C\c1nsc(Nc2ccc(F)c(Cl)c2)n1)NCCC1=CCCCC1 | > 10.4
C/C(=N/Nc1ccc(F)cc1F)c1cc2cc(Br)ccc2oc1=O | > 10.4
CCOC(=O)c1sc(-n2[nH]c(C)c(Cc3ccc(Cl)cc3)c2=O)nc1C | > 10.4
O=C(Nc1nc(NC(=O)c2ccco2)n(-c2ccccc2)n1)c1ccccc1 | > 10.4
CCC(CO)NCC(O)Cn1c2ccc(Cl)cc2c2cc(Cl)ccc21 (stereo unspecified) | > 10.4
Cc1ccc(Nc2nc3c(N)nnc(N)c3nc2Nc2ccc(C)cc2)cc1 | > 10.4
CC(/C=N/NC(=O)c1cc(-c2ccc(OC(C)C)cc2)n[nH]1)=C\c1ccccc1 | > 10.4
